Assay [1] concerns HeLa (cervix adenoma cancer cell). Nature of the assay: WST-1 cytotoxicity, HeLa. The class given is cell-based, human. The method, then:
(§1) Cancer and normal cell lines were purchased from ATCC and stored in liquid nitrogen. HT-29 (colon adenoma cancer), HeLa (cervix adenoma cancer cell), MDA-MB-231 (breast adenoma cancer cell), HEK-293 (embryonic kidney epithelial cell) and PNT-1A (normal prostate cells) cell lines were incubated in DMEM: F-12 and RPMI-1640, including 10% foetal bovine serum (FBS), 100 µg/mL streptomycin/100 IU/mL penicillin, at 37 °C in an incubator containing 5% CO2, 95% air in a humid atmosphere.
(§2) The cytotoxic effects of the substances were evaluated with WST-1 kits (Roche, Germany) in accordance with the manufacturer’s protocols. The cells were planted in 96-well plates (10^4 cells in each well). After incubation for 24 h, the media were discarded and the substances and 5-Fu as the control drug, at doses of 0, 2.5, 5, 10, 25, 50, 100 and 200 µM, were incubated for 24, 48 and 72 h. WST-1 reactive of 10 µL was added to all wells. Following 4-h incubation, the measurements were taken on a plate reader (Spectramax M5) at wavelengths of 450 and 630 nm. Graphs were then created and the IC50 value of each substance was calculated.

Assay [2] concerns HEK-293 (embryonic kidney epithelial cell). Nature of the assay: WST-1 cytotoxicity, HEK-293. The class given is cell-based. Particulars: normal cell. The method, then: as §1, §2
The target of another assay is hCA IX. The arrangement: method as in PMID 25913118, PMID 26803577. Particulars: cited from earlier work.
The test system of assay [3] is MDA-MB-231 (breast adenoma cancer cell). Nature of the assay: WST-1 cytotoxicity, MDA-MB-231. The class given is cell-based, human. On the procedure:
as §1, §2

The test system of assay [4] is HT-29 (colon adenoma cancer). Nature of the assay: WST-1 cytotoxicity, HT-29. The class given is cell-based, human. The method, then:
as §1, §2

Assay [5] has as its system PNT-1A (normal prostate cells). Nature of the assay: WST-1 cytotoxicity, PNT-1A. The class given is cell-based. Particulars: normal cell. The method, then:
as §1, §2

The target of a further assay is hCA XII. The arrangement: method as in PMID 25913118, PMID 26803577. Particulars: cited from earlier work.
[6] abbreviates: WST-1, 24 h, mean of three experiments, read-out: IC50 HeLa 24 h.
Where [7] appears, read: WST-1, 48 h, read-out: IC50 HeLa 48 h.
Setting [8] is: WST-1, 24 h, read-out: IC50 HEK-293 24 h.
Setting [9] is: WST-1, 72 h, read-out: IC50 HEK-293 72 h.
The mark [10] stands for this setting: WST-1, 48 h, read-out: IC50 MDA-MB-231 48 h.
Setting [11] is: WST-1, 72 h, read-out: IC50 MDA-MB-231 72 h.
The mark [12] stands for this setting: WST-1, 24 h, read-out: IC50 HT-29 24 h.
Where [13] appears, read: WST-1, 48 h, read-out: IC50 HT-29 48 h.
Where [14] appears, read: WST-1, 72 h, read-out: IC50 HT-29 72 h.
[15] abbreviates: WST-1, 72 h, read-out: IC50 HeLa 72 h.
[16] abbreviates: WST-1, 48 h, read-out: IC50 HEK-293 48 h.
Setting [17] is: WST-1, 24 h, read-out: IC50 PNT-1A 24 h.
Where [18] appears, read: WST-1, 48 h, read-out: IC50 PNT-1A 48 h.
Where [19] appears, read: WST-1, 72 h, read-out: IC50 PNT-1A 72 h.

Where two headings read alike, the source gives them in different places.

As for `Cc1cccc(C=NCCc2ccc(S(N)(=O)=O)cc2)c1O` [Compound 2], the IC50 in assay [1] (setting [6]) was found to be 27.1 ± 1.3 µM; in assay [1] (setting [7]), 49.6 ± 0.8 µM; in assay [2] (setting [8]), 114 ± 3.44 µM; in assay [2] (setting [9]), 75.2 ± 5.6 µM. For the same compound, the Ki at hCA IX was 0.295 µM.

Regarding `Cc1cccc(C=Nc2ccc(S(N)(=O)=O)cc2)c1O` [Compound 3], the IC50 in assay [1] (setting [6]) came to 36.3 ± 0.2 µM; in assay [1] (setting [7]), 29.8 ± 2.3 µM; in assay [3] (setting [10]), 80.6 ± 12.4 µM; in assay [3] (setting [11]), 96.7 ± 33.4 µM; in assay [2] (setting [8]), 196 ± 14.3 µM; in assay [2] (setting [9]), 37.9 ± 3.6 µM. Moreover, the Ki at hCA IX was 0.465 µM.

With `Cc1ccc(C=NCCc2ccc(S(N)(=O)=O)cc2)cc1` [Compound 4], the IC50 is 33 ± 2.3 µM in assay [4] (setting [12]); 23.7 ± 2.2 µM in assay [4] (setting [13]); 119 ± 23.2 µM in assay [4] (setting [14]); 178 ± 11.2 µM in assay [3] (setting [11]); 96.2 ± 12.2 µM in assay [2] (setting [9]). Further, the Ki on hCA IX is 0.123 µM.

In the case of `O=c1[nH]cc(F)c(=O)[nH]1` [Compound 5-FU, reference compound], the IC50 worked out at 37.8 ± 4.3 µM in assay [1] (setting [6]); 31.2 ± 2.3 µM in assay [1] (setting [7]); 14.7 ± 0.6 µM in assay [1] (setting [15]); 47.3 ± 1.2 µM in assay [4] (setting [12]); 23.4 ± 2.1 µM in assay [4] (setting [13]); 19.3 ± 1.2 µM in assay [4] (setting [14]). The IC50 worked out at 42.6 ± 2.56 µM in assay [3] (WST-1, 24 h, read-out: IC50 MDA-MB-231 24 h); 37.9 ± 12.3 µM in assay [3] (setting [10]); 21 ± 4.3 µM in assay [3] (setting [11]); 44.6 ± 7.2 µM in assay [2] (setting [8]); 19.8 ± 2.3 µM in assay [2] (setting [16]); 14.5 ± 3.2 µM in assay [2] (setting [9]). Besides, the IC50 in assay [5] (setting [17]) was determined as 23.1 ± 4.55 µM; in assay [5] (setting [18]), 21.2 ± 2.2 µM; in assay [5] (setting [19]), 17.5 ± 7.6 µM.

As to `Cc1ccc(C=Nc2ccc(S(N)(=O)=O)cc2)cc1` [Compound 5], the IC50 in assay [1] (setting [7]) was determined as 182 ± 12.2 µM; in assay [3] (setting [10]) it was 74.7 ± 12.4 µM; in assay [2] (setting [9]), 170 ± 11.2 µM. Moreover, the inhibitory constant (Ki) on hCA IX is 0.0237 µM; on hCA XII, 0.0099 µM.

Regarding `COc1ccc(C=Nc2ccc(S(N)(=O)=O)cc2)cc1` [Compound 6], the IC50 in assay [1] (setting [7]) came to 198 ± 14.3 µM; in assay [1] (setting [15]) it was 123 ± 11.1 µM; in assay [4] (setting [14]) it was 187 ± 23.4 µM; in assay [2] (setting [9]), 100 ± 22.2 µM; in assay [5] (setting [17]) it was 154 ± 16.5 µM; in assay [5] (setting [18]), 120 ± 11.2 µM. In addition, in assay [5] (setting [19]), the IC50 was determined as 76.4 ± 13.3 µM. Further, the Ki was 0.883 µM on hCA IX and 0.0112 µM on hCA XII.

`COc1ccc(C=NCCc2ccc(S(N)(=O)=O)cc2)cc1` [Compound 7]: the IC50 in assay [3] (setting [10]) came to 123 ± 12.3 µM; in assay [3] (setting [11]) it was 98.2 ± 11.2 µM; in assay [2] (setting [8]) it was 120 ± 13.8 µM; in assay [2] (setting [16]), 98.3 ± 11.2 µM; in assay [2] (setting [9]), 85.4 ± 11.2 µM; in assay [5] (setting [18]), 190 ± 8.6 µM. Further, in assay [5] (setting [19]), the IC50 turned out to be 130 ± 32.2 µM. Moreover, the Ki at hCA IX is 0.231 µM.

These data come from publication PMC6052416, “Selective inhibition of carbonic anhydrase-IX by sulphonamide derivatives induces pH and reactive oxygen species-mediated apoptosis in cervical cancer HeLa cells” (Journal of Enzyme Inhibition and Medicinal Chemistry, 2018).
